Results from publication PMC6934184, “Selective DNA-PKcs inhibition extends the therapeutic index of localized radiotherapy and chemotherapy” (The Journal of Clinical Investigation, 2019).

Target: T1, ROCK2 (Homo sapiens, UniProt O75116)
T1 construct: purchased Thermo Fisher Scientific (Life Technologies) SelectScreen
Assay: SelectScreen Z'LYTE
Format: biochemical
How it was run: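 Percent values come from Thermo SelectScreen profiling of NU5455, combining activity and binding assays. CSF1R was run in Z'LYTE format at Km app ATP, and CAMK1 in Adapta format with ATP listed at 10.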

T1 sequence (O75116 whole entry): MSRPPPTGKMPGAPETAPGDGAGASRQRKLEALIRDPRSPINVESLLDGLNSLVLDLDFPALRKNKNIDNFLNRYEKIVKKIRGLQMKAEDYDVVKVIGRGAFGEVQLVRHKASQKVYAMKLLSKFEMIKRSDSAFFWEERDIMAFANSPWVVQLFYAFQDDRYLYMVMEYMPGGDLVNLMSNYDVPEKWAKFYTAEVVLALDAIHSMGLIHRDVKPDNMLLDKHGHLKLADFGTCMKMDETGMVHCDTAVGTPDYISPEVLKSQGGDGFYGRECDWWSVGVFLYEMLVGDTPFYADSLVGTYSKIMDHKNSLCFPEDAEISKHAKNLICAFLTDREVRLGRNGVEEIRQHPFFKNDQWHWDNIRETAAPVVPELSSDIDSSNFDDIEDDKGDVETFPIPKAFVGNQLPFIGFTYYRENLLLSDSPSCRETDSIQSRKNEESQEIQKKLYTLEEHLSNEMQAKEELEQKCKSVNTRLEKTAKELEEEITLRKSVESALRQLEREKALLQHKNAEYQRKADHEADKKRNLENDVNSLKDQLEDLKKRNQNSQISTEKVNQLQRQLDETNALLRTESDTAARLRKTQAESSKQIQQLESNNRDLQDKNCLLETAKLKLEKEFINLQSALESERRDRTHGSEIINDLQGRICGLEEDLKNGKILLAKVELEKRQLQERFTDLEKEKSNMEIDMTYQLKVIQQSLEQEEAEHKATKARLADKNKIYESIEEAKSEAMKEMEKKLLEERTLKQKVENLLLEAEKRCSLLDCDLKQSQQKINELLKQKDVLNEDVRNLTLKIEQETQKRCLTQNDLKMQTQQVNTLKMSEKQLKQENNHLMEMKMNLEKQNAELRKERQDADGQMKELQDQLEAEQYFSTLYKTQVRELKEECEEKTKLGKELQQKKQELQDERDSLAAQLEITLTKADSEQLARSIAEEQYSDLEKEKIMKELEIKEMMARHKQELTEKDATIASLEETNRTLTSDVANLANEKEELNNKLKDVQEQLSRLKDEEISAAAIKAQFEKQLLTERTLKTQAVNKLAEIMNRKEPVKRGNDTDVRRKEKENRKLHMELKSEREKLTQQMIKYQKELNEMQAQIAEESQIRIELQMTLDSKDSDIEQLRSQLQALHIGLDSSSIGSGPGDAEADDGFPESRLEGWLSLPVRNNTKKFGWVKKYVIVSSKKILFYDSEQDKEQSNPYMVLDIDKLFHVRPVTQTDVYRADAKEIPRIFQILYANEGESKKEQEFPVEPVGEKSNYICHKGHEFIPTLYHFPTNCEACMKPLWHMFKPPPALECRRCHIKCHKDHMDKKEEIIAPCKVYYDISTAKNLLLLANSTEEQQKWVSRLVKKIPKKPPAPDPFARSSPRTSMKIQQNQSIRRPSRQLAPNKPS

## CN(C(=O)CN1CCOCC1)c1ccc2sc3c(-c4cccc5c(=O)cc(N6CC7CCC(C6)O7)oc45)cccc3c2c1 [NU5455]
  inhibition at 1 µM: -4.1%
